Literature values, collected in US20090191194A1, “INHIBITION OF PROTEIN KINASE C ALPHA FOR THE TREATMENT OF CARDIOVASCULAR DISEASES” (Phenos GmbH, priority 2002, published 2009).
Each block holds one compound with its values, some of them ahead of it.

Columns and labels:
[1] = tested on: protein kinase C isoform alpha
[2] = tested on: protein kinase C isoform beta II
[3] = tested on: protein kinase C isoform beta I
[4] = target: PKC-alpha (Homo sapiens, UniProt P17252); conditions: higher TPA concentration, for example 1.6 μM
[5] = target: cellular protein kinase C-alpha (Homo sapiens, UniProt P17252); conditions: by changing the phosphorylation state of PKC-alpha

expression of protein kinase C isoform alpha [1]: reduces the expression | expression of protein kinase C isoform beta II [2]: reduces the expression | expression of protein kinase C isoform beta I [3]: reduces the expression
Compound: cyclosporine A

Compound: CCCCCCCCCCCCCC(=O)O[C@@H]1[C@@H](C)[C@@]2(O)[C@@H](C=C(CO)C[C@]3(O)C(=O)C(C)=C[C@@H]23)[C@@H]2C(C)(C)[C@]12OC(C)=O [TPA, 12-o-tetradecanoylphorbol-13-acetate]
PKC-alpha expression [4]: completely inhibits

inactivation of cellular protein kinase C-alpha [5]: inactivate
Compound: Cc1c(C)c2c(c(C)c1O)CC[C@@](C)(CCC[C@H](C)CCC[C@H](C)CCCC(C)C)O2 [alpha-tocopherol]
